Results from patent US20070172422A1, “Exponential pattern recognition based cellular targeting compositions, methods and anticancer applications” (priority 2001, published 2007).
Blank lines part the entries; values can stand above or below the compound they belong to.

Key:
[1] = times more potent than doxorubicin; cited from earlier work
[2] = test system: cells including adriamycin resistant tumor lines; conditions: cited from earlier work
[3] = target: PSMA (Homo sapiens, UniProt Q04609); assay: inhibition of the enzymatic activity of PSMA; format: biochemical
Experimental: The ability of Compound 8 to inhibit the enzymatic activity of PSMA (and consequently to bind to the enzyme) was evaluated using the method described previously in Ser. No. 09/712,465 Nov. 15, 2000 Glazier, Arnold. “Selective Cellular Targeting: Multifunctional Delivery Vehicles, Multifunctional Prodrugs, Use as Neoplastic Drugs. The IC50 for Compound 8 was 8 nanomolar.

Sequence of PSMA (Q04609 whole entry, species assumed): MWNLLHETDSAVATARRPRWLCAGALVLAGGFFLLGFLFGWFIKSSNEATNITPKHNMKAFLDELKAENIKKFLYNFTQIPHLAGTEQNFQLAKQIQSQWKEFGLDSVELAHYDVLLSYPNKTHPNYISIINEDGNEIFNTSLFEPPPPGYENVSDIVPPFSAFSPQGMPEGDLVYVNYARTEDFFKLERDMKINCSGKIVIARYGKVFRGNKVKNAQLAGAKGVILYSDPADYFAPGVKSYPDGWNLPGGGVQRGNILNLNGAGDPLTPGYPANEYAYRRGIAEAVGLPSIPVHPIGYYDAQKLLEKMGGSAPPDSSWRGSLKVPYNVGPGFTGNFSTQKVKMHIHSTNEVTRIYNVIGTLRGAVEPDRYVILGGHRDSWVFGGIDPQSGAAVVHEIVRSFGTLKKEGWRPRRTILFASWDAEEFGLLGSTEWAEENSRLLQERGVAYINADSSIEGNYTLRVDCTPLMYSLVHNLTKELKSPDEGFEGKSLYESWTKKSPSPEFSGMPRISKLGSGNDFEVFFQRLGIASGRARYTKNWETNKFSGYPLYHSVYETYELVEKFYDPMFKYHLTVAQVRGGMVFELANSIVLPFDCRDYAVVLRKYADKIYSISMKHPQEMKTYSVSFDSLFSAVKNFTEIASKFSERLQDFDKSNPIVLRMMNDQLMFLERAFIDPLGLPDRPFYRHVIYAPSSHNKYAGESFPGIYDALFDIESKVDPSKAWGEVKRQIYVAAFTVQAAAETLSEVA

Structure (SMILES): COc1cccc2c1C(=O)c1c(O)c3c(c(O)c1C2=O)C[C@@](O)(C(=O)CO)C[C@@H]3O[C@H]1C[C@H](N2C=CCC2)[C@H](O)[C@H](C)O1 [2-pyrrolinodoxorubicin]
potency relative to doxorubicin [1]: 500-1000 times

Structure (SMILES): CO[C@@H]1[C@H](O)C[C@@H](O[C@@H]2C[C@H](Oc3cc4cc5c(c(O)c4c(O)c3C)C(=O)[C@@H](O[C@H]3C[C@@H](O[C@H]4C[C@@H](O[C@H]6C[C@](C)(O)[C@@H](OC(C)=O)[C@H](C)O6)[C@H](O)[C@@H](C)O4)[C@H](O)[C@@H](C)O3)[C@H]([C@H](OC)C(=O)[C@@H](O)[C@@H](C)O)C5)O[C@H](C)[C@@H]2OC(C)=O)O[C@@H]1C [Chromomycin A3]
concentrations at which cytotoxic [2]: subnanomolar concentrations

IC50 [3]: 8 nM
Structure (SMILES): COc1ccc(C(=O)NCCOCCOCCOCCNC(=O)CCC(NC(=O)NC(CCC(=O)O)C(=O)O)C(=O)O)cc1 (stereo not drawn) [Compound 8]
